The NIST ThermoML archive (doi:10.1021/je301283e)

Settings: Liquid, Vibrating tube method

CCCCCCCCCCCCCCCC [hexadecane]
mass density [kg/m3]
Settings | 313.15 K | 333.15 K | 353.15 K | 373.15 K | 393.15 K
340 kPa | 759.52 | 746.8 | 736.2 | 723.1 | 710
690 kPa | 759.83 | 747.1 | 736.4 | 723.3 | 710.3
1030 kPa | 760.08 | 747.4 | 736.6 | 723.6 | 710.6
1380 kPa | 760.33 | 747.7 | 736.9 | 723.8 | 710.9
1720 kPa | 760.65 | 748 | 737.1 | 724 | 711.1
2070 kPa | 760.88 | 748.2 | 737.4 | 724.3 | 711.4
2410 kPa | 761.08 | 748.5 | 737.7 | 724.6 | 711.7
2760 kPa | 761.33 | 748.7 | 738 | 724.9 | 712
3100 kPa | 761.65 | 749 | 738.3 | 725.1 | 712.2
3450 kPa | 761.83 | 749.2 | 738.7 | 725.4 | 712.3
3800 kPa | 762.08 | 749.5 | 739.1 | 725.6 | 712.5
4140 kPa | 762.33 | 749.8 | 739.3 | 725.9 | 712.8
4480 kPa | 762.49 | 750 | 739.5 | 726.1 | 713
4830 kPa | 762.83 | 750.2 | 739.8 | 726.4 | 713.3
5170 kPa | 763.08 | 750.5 | 740 | 726.7 | 713.5
5510 kPa | 763.33 | 750.7 | 740.2 | 726.9 | 713.8
5860 kPa | 763.58 | 751 | 740.4 | 727.2 | 714
6200 kPa | 763.83 | 751.2 | 740.5 | 727.5 | 714.3
6550 kPa | 764.08 | 751.4 | 740.7 | 727.8 | 714.6
6890 kPa | 764.33 | 751.6 | 741 | 728.1 | 714.9
7240 kPa | 764.65 | 752 | 741.2 | 728.4 | 715.1
7580 kPa | 764.83 | 752.4 | 741.5 | 728.5 | 715.3
7930 kPa | 765.08 | 752.6 | 741.7 | 728.9 | 715.5
8270 kPa | 765.33 | 752.8 | 742 | 729.4 | 715.8
8620 kPa | 765.58 | 753 | 742.2 | 729.9 | 716
8960 kPa | 765.74 | 753.2 | 742.5 | 730.2 | 716.3
9310 kPa | 765.99 | 753.5 | 742.7 | 730.6 | 716.6
9650 kPa | 766.24 | 753.8 | 742.9 | 730.8 | 716.8
10000 kPa | 766.49 | 754 | 743.1 | 731 | 717.1
10340 kPa | 766.74 | 754.3 | 743.5 | 731.4 | 717.4
10690 kPa | 766.98 | 754.5 | 743.9 | 731.6 | 717.6
11030 kPa | 767.22 | 754.8 | 744.1 | 731.9 | 717.9
11380 kPa | 767.48 | 755 | 744.3 | 732.1 | 718.1
